Test results: patent US20070049564A1 (Wyeth, priority 2005, published 2007)
In brackets after ≈: the same amount, converted by molar mass. Where two headings read alike, the source gives them in different places.

Columns and labels:
E. coli #311 = test: In vivo activity (oral, iv; ED50) against E. coli in mice; conditions: Escherichia coli
From the text: . […] Smith and E. Coli #311 in mammals.
Results of the tests (MIC, oral and IV) are list in Table 7.

Salmonella spp. GC 235 = test: MIC, broth microdilution
Salmonella spp. GC 566 = test: MIC, broth microdilution; conditions: Salmonella
S. cholerasius GC 1355 = test: MIC, broth microdilution
Method: Antimicrobial susceptibility testing. The in vitro activities of the antibiotics are determined by the broth microdilution method as recommended by the National Committee for Clinical Laboratory Standards (NCCLS) (1). Mueller-Hinton II broth (MHBII)(BBL Cockeysville, Md.) is the medium employed in the testing procedures. Microtiter plates containing serial dilutions of each antimicrobial agent are inoculated with each organism to yield the appropriate density (10^5 CFU/ml) in a 100 μl final volume. The plates are incubated for 18-22 hours at 35° C. in ambient air.
Presented in Tables I-XIII are representative compounds of Formula I which were evaluated against a panel of 40 selected gram-positive and gram-negative bacteria strains by pre-incubation in water, mouse serum or human serum. Representative compounds were first incubated in mouse serum for an hour prior to the in vitro testing against a panel of selected gram-positive and gram-negative bacteria strains. All compounds were also pre-incubated in water for an hour prior to testing as control. Representative compounds of Formula I were incubated in human serum prior to MIC determination.

[1] = single intravenous dose (SIV), read-out: ED50 E. coli #311 SIV
[2] = single oral dose (SOD), read-out: ED50 E. coli #311 SOD
[3] = Salmonella, SPP.GC235, Salmonella spp. GC 235, Mouse Serum pre-incubation
[4] = Salmonella, SPP.GC235, Salmonella spp. GC 235, Water pre-incubation
[5] = SPP.GC566, Salmonella spp. GC 566, Mouse Serum pre-incubation
[6] = SPP.GC566, Salmonella spp. GC 566, Water pre-incubation
[7] = S. cholerasius GC 1355, Mouse Serum pre-incubation
[8] = S. cholerasius GC 1355, Water pre-incubation
[9] = Salmonella, SPP.GC235, pre-incubation in human serum
[10] = Salmonella, SPP.GC235, pre-incubation in mouse serum
[11] = Salmonella, SPP.GC235, pre-incubation in water
[12] = SPP.GC566, pre-incubation in human serum
[13] = SPP.GC566, pre-incubation in mouse serum
[14] = SPP.GC566, pre-incubation in water

SMILES | ED50 (E. coli #311; [1]) [mg/kg] | ED50 (E. coli #311; [2]) [mg/kg] | MIC (Salmonella spp. GC 235; [3]) [µg/mL] | MIC (Salmonella spp. GC 235; [4]) [µg/mL] | MIC (Salmonella spp. GC 566; [5]) [µg/mL] | MIC (Salmonella spp. GC 566; [6]) [µg/mL] | MIC (S. cholerasius GC 1355; [7]) [µg/mL] | MIC (S. cholerasius GC 1355; [8]) [µg/mL] | MIC (Salmonella spp. GC 235; [9]) [µg/mL] | MIC (Salmonella spp. GC 235; [10]) [µg/mL] | MIC (Salmonella spp. GC 235; [11]) [µg/mL] | MIC (Salmonella spp. GC 566; [12]) [µg/mL] | MIC (Salmonella spp. GC 566; [13]) [µg/mL] | MIC (Salmonella spp. GC 566; [14]) [µg/mL] | MIC (S. cholerasius GC 1355; pre-incubation in human serum) [µg/mL] | MIC (S. cholerasius GC 1355; pre-incubation in mouse serum) [µg/mL] | MIC (S. cholerasius GC 1355; pre-incubation in water) [µg/mL] | MIC (Salmonella spp. GC 235; pre-incubation in water) [UG/ML]
CCCCN(CC(=O)Nc1cc(N(C)C)c2c(c1O)C(=O)C1=C(O)[C@]3(O)C(=O)C(C(N)=O)=C(O)[C@@H](N(C)C)[C@@H]3C[C@@H]1C2)C(=O)OCOC(=O)c1ccc(F)cc1 [Example 4, ({[(2-{[(5aR,6aS,7S,10aS)-9-(aminocarbonyl)-4,7-bis(dimethylamino)-1,8,10a,11-tetrahydroxy-10,12-dioxo-5,5a,6,6a,7,10,10a,12-octahydrotetracen-2-yl]amino}-2-oxoethyl)(butyl)amino]carbonyl}oxy)methyl 4-fluorobenzoate] | > 2 | > 32 | 2 (≈ 2.56 µM) | > 64 | 4 (≈ 5.12 µM) | > 64 | 8 (≈ 10.2 µM) | > 64 | – | – | – | – | – | – | – | – | – | –
CCCN(CC(=O)Nc1cc(N(C)C)c2c(c1O)C(=O)C1=C(O)[C@]3(O)C(=O)C(C(N)=O)=C(O)[C@@H](N(C)C)[C@@H]3C[C@@H]1C2)C(=O)OCOC(=O)Cc1ccccc1 [Example 11, ({[(2-{[(5aR,6aS,7S,10aS)-9-(aminocarbonyl)-4,7-bis(dimethylamino)-1,8,10a,11′-tetrahydroxy-10,12-dioxo-5,5a,6,6a,7,10,10a,12-octahydrotetracen-2-yl]amino}-2-oxoethyl)(propyl)amino]carbonyl}oxy)methyl phenylacetate] | – | – | 0.5 (≈ 0.655 µM) | 64 (≈ 83.8 µM) | 2 (≈ 2.62 µM) | > 64 | 32 (≈ 41.9 µM) | > 64 | – | – | – | – | – | – | – | – | – | –
CCCCN(CC(=O)Nc1cc(N(C)C)c2c(c1O)C(=O)C1=C(O)[C@]3(O)C(=O)C(C(N)=O)=C(O)[C@@H](N(C)C)[C@@H]3C[C@@H]1C2)C(=O)OCOC(=O)Cc1ccccc1 [Example 12, ({[(2-{[(5aR,6aS,7S,10aS)-9-(aminocarbonyl)-4,7-bis(dimethylamino)-1,8,10a,11-tetrahydroxy-10,12-dioxo-5,5a,6,6a,7,10,10a,12-octahydrotetracen-2-yl]amino}-2-oxoethyl)(butyl)amino]carbonyl}oxy)methyl phenylacetate] | – | – | 1 (≈ 1.29 µM) | 64 (≈ 82.3 µM) | 4 (≈ 5.14 µM) | > 64 | 16 (≈ 20.6 µM) | > 64 | – | – | – | – | – | – | – | – | – | –
CCCCN(CC(=O)Nc1cc(N(C)C)c2c(c1O)C(=O)C1=C(O)[C@]3(O)C(=O)C(C(N)=O)=C(O)[C@@H](N(C)C)[C@@H]3C[C@@H]1C2)C(=O)OCOC(=O)C(C)(C)C [Example 13, ({[(2-{[(5aR,6aS,7S,10aS)-9-(aminocarbonyl)-4,7-bis(dimethylamino)-1,8,10a,11-tetrahydroxy-10,12-dioxo-5,5a,6,6a,7,10,10a,12-octahydrotetracen-2-yl]amino}-2-oxoethyl)(butyl)amino]carbonyl}oxy)methyl pivalate] | – | – | 2 (≈ 2.69 µM) | 16 (≈ 21.5 µM) | 8 (≈ 10.8 µM) | 64 (≈ 86 µM) | 16 (≈ 21.5 µM) | > 64 | – | – | – | – | – | – | – | – | – | –
CCCN(CC(=O)Nc1cc(N(C)C)c2c(c1O)C(=O)C1=C(O)[C@]3(O)C(=O)C(C(N)=O)=C(O)[C@@H](N(C)C)[C@@H]3C[C@@H]1C2)C(=O)OCc1ccccc1 [Example 14, benzyl 2-{[(5aR,6aS,7S,10aS)-9-(aminocarbonyl)-4,7-bis(dimethylamino)-1,8,10a,11-tetrahydroxy-10,12-dioxo-5,5a,6,6a,7,10,10a,12-octahydrotetracen-2-yl]amino}-2-oxoethyl(propyl)carbamate] | – | – | > 64 | > 64 | > 64 | > 64 | > 64 | > 64 | – | – | – | – | – | – | – | – | – | –
CCCN(CC(=O)Nc1cc(N(C)C)c2c(c1O)C(=O)C1=C(O)[C@]3(O)C(=O)C(C(N)=O)=C(O)[C@@H](N(C)C)[C@@H]3C[C@@H]1C2)C(=O)OCC [Example 15, ethyl 2-{[(5aR,6aS,7S,10aS)-9-(aminocarbonyl)-4,7-bis(dimethylamino)-1,8,10a,11-tetrahydroxy-10,12-dioxo-5,5a,6,6a,7,10,10a,12-octahydrotetracen-2-yl]amino}-2-oxoethyl(propyl)carbamate] | – | – | > 64 | > 64 | > 64 | > 64 | > 64 | > 64 | – | – | – | – | – | – | – | – | – | –
CCCN(CC(=O)Nc1cc(N(C)C)c2c(c1O)C(=O)C1=C(O)[C@]3(O)C(=O)C(C(N)=O)=C(O)[C@@H](N(C)C)[C@@H]3C[C@@H]1C2)C(=O)OCC(C)C [Example 16, isobutyl 2-{[(5aR,6aS,7S,10aS)-9-(aminocarbonyl)-4,7-bis(dimethylamino)-1,8,10a,11-tetrahydroxy-10,12-dioxo-5,5a,6,6a,7,10,10a,12-octahydrotetracen-2-yl]amino}-2-oxoethyl(propyl)carbamate] | – | – | > 64 | > 64 | > 64 | > 64 | > 64 | > 64 | – | – | – | – | – | – | – | – | – | –
CCCCC(=O)OCOC(=O)N(CC(=O)Nc1cc(N(C)C)c2c(c1O)C(=O)C1=C(O)[C@]3(O)C(=O)C(C(N)=O)=C(O)[C@@H](N(C)C)[C@@H]3C[C@@H]1C2)C(C)(C)C [Example 61, ({[(2-{[(5aR,6aS,7S,10aS)-9-(aminocarbonyl)-4,7-bis(dimethylamino)-1,8,10a,11-tetrahydroxy-10,12-dioxo-5,5a,6,6a,7,10,10a,12-octahydrotetracen-2-yl]amino}-2-oxoethyl)(tert-butyl)amino]carbonyl}oxy)methyl pentanoate] | 2 to 4 | > 32 | – | – | – | – | – | – | 16 (≈ 21.5 µM) | 1 (≈ 1.34 µM) | > 64 | 32 (≈ 43 µM) | 1 (≈ 1.34 µM) | > 64 | 64 (≈ 86 µM) | 2 (≈ 2.69 µM) | > 64 | –
CN(C)c1cc(NC(=O)CN(C(=O)OCOC(=O)C2CCC2)C(C)(C)C)c(O)c2c1C[C@H]1C[C@H]3[C@H](N(C)C)C(O)=C(C(N)=O)C(=O)[C@@]3(O)C(O)=C1C2=O [Example 62, ({[(2-{[(5aR,6aS,7S,10aS)-9-(aminocarbonyl)-4,7-bis(dimethylamino)-1,8,10a,11-tetrahydroxy-10,12-dioxo-5,5a,6,6a,7,10,10a,12-octahydrotetracen-2-yl]amino}-2-oxoethyl)(tert-butyl)amino]carbonyl}oxy)methyl cyclobutanecarboxylate] | 4 to 8 | > 32 | – | – | – | – | – | – | 8 (≈ 10.8 µM) | 1 (≈ 1.35 µM) | > 64 | 16 (≈ 21.6 µM) | 1 (≈ 1.35 µM) | > 64 | 32 (≈ 43.1 µM) | 2 (≈ 2.7 µM) | > 64 | –
CN(C)c1cc(NC(=O)CN(C(=O)OCOC(=O)CCC2CCCCC2)C(C)(C)C)c(O)c2c1C[C@H]1C[C@H]3[C@H](N(C)C)C(O)=C(C(N)=O)C(=O)[C@@]3(O)C(O)=C1C2=O [Example 63, ({[(2-{[(5aR,6aS,7S,10aS)-9-(aminocarbonyl)-4,7-bis(dimethylamino)-1,8,10a,11-tetrahydroxy-10,12-dioxo-5,5a,6,6a,7,10,10a,12-octahydrotetracen-2-yl]amino}-2-oxoethyl)(tert-butyl)amino]carbonyl}oxy)methyl 3-cyclohexylpropanoate] | 4 to 8 | > 32 | – | – | – | – | – | – | > 64 | 1 (≈ 1.25 µM) | > 64 | > 64 | 1 (≈ 1.25 µM) | > 64 | > 64 | 2 (≈ 2.51 µM) | > 64 | –
CCCCN(CC(=O)Nc1cc(N(C)C)c2c(c1O)C(=O)C1=C(O)[C@]3(O)C(=O)C(C(N)=O)=C(O)[C@@H](N(C)C)C3CC1C2)C(=O)OCc1oc(=O)oc1C (stereo partly drawn) [Example 109, (5-methyl-2-oxo-1,3-dioxol-4-yl)methyl 2-{[(7S,10aS)-9-(aminocarbonyl)-4,7-bis(dimethylamino)-1,8,10a,11-tetrahydroxy-10,12-dioxo-5,5a,6,6a,7,10,10a,12-octahydrotetracen-2-yl]amino}-2-oxoethyl(butyl)carbamate] | – | – | – | – | – | – | – | – | – | 1 (≈ 1.35 µM) | 2 (≈ 2.7 µM) | – | 2 (≈ 2.7 µM) | 4 (≈ 5.39 µM) | – | 8 (≈ 10.8 µM) | 32 (≈ 43.1 µM) | 4
